Reference: patent US4831046A, “Tetrazole derivatives of 1,3-dioxane and thromboxane A2 antigonizing use thereof” (Imperial Chemical Industries PLC, priority 1985, dated 1989)

Experiments:
[1] = tested on: rabbit aortal strip; assay: rabbit aortal strip model (agonist TXA2 or U46619); assay type: cell-based; conditions: test (a), TXA2 antagonism
Method: (§1) As stated earlier, the compounds of formula I are antagonists of one or more of the actions of TXA2, for example certain of its actions on blood platelets, the vasculature and/or the lung.
(a) The rabbit aortal strip model devised by Piper and Vane (Nature, 1969, 223, 29-35) using as agonist a freshly prepared sample of TXA2, generated by addition of arachidonic acid (25 μg) to citrated, platelet rich rabbit plasma (250 μl) and allowing the mixture to aggregate fully over 90 seconds before use; alternatively the TXA2 mimetic agent known as U46619 (described by R L Jones et alia, in "Chemistry, Biochemistry and Pharmacological Activity of Prostanoids" edited by S M Roberts and F Scheinmann, at page 211, Pergamon Press, 1979) may be used as the agonist;

[2] = molecular target: T1, human, citrated platelet-rich plasma (Homo sapiens, UniProt P21731); assay: blood platelet aggregation test (U46619, based on Born); assay type: cell-based; conditions: test (b), averaged over several concentrations
T1 construct: aggregating human, citrated platelet-rich plasma by addition of the TXA2 mimetic agent U46619; endogenous in cells; host or cells: human platelets in citrated platelet-rich plasma
T1 sequence (P21731 1-343): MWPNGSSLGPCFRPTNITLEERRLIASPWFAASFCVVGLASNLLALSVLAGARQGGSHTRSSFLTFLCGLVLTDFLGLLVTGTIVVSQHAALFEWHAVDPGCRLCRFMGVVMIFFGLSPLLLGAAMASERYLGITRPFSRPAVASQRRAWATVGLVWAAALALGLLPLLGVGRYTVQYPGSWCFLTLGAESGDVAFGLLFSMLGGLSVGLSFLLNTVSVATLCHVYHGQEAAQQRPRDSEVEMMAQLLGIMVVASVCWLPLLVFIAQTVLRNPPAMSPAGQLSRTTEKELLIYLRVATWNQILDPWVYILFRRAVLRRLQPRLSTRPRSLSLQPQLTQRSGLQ
From the text: as §1
(b) a blood platelet aggregation test based on that described by Born (Nature, 1962, 194, 927-929) and involving:
(i) aggregating human, citrated platelet-rich plasma by addition of the TXA2 mimetic agent U46619 so that a dose-response curve is generated;
(ii) generating a dose-response curve for U46619 stimulated platelet aggregation in the presence of increasing amounts of test compound (generally in the range, 10^-5 M to 10^-10 M); and
(iii) calculating a KB value indicating potency of TXA2 antagonism for the test compound averaged over several concentrations, from the calculated 50% response value for U46619 aggregation in the presence and absence of test compound; and […]

[3] = tested on: U46619 induced bronchoconstriction; assay: bronchoconstriction test, U46619 induced, Konzett-Rossler anaesthetised guinea-pig model; assay type: in vivo; conditions: test (c), 50 μg/kg p.o., 50% response
From the text: as §1
(c) a bronchoconstriction test involving measuring the inhibition by a test compound of the bronchoconstriction induced in the Konzett-Rossler, anaesthetised guinea-pig model (as modified by Collier and James, Brit. J. Pharmacol., 1967, 30, 283-307) by intravenous administration of the TXA2 mimetic agent, U46619 and involving:
(i) obtaining a cumulative dose-response curve to U46619 induced bronchoconstriction by intravenous administration of constant volumes of increasing concentrations of U46619 (0.2-4 μg/kg) in physiological saline solution and expressing bronchoconstriction as the maximum of that theoretically obtainable with no air flow to the test animal;
(ii) generating a cumulative dose-response curve to U46619 induced bronchoconstriction at 30 minute intervals for 3 hours after oral dosing of test compound; and
(iii) calculating a dose-ratio for the test compound (that is the ratio of concentration of U46619 required to cause 50% bronchoconstriction in the presence and absence of test compound) indicating the potency of TXA2 antagonism.

- Kb [2]: 45.6 nM
Compound: CC(C)[C@@H]1OC[C@H](C/C=C\CCc2nn[nH]n2)[C@H](c2ccccc2O)O1 (relative stereo) [Example 5, 5-[3(Z)-5-([2,4,5-cis]-4-o-hydroxyphenyl-2-isopropyl-1,3-dioxan-5-yl)pentenyl]-1(H)-tetrazole]
- pA2 [1]: 7.32
- dose ratio [3]: 25
